This is an account of results in patent US9346798B2, “Dihydrobenzoxazine and tetrahydroquinoxaline sodium channel inhibitors” (AMGEN INC., priority 2012, dated 2016).

SMILES strings stand for the structures. pIC50: −log10 of the molar value.

Holding throughout (type): cell-based
The target in data set [1] is T1, Nav 1.7 (Homo sapiens (Human), UniProt Q15858). Briefly: Nav 1.7 in vitro assay, IonWorks Quattro (IWQ) population patch-clamp. Conditions: HEK 293 cells stably transfected with Nav 1.7; 26th pulse to -20 mV. As for the experimental part: (§1) Nav 1.7 and Nav 1.5 In Vitro Assays
T1 sequence (Q15858 whole entry): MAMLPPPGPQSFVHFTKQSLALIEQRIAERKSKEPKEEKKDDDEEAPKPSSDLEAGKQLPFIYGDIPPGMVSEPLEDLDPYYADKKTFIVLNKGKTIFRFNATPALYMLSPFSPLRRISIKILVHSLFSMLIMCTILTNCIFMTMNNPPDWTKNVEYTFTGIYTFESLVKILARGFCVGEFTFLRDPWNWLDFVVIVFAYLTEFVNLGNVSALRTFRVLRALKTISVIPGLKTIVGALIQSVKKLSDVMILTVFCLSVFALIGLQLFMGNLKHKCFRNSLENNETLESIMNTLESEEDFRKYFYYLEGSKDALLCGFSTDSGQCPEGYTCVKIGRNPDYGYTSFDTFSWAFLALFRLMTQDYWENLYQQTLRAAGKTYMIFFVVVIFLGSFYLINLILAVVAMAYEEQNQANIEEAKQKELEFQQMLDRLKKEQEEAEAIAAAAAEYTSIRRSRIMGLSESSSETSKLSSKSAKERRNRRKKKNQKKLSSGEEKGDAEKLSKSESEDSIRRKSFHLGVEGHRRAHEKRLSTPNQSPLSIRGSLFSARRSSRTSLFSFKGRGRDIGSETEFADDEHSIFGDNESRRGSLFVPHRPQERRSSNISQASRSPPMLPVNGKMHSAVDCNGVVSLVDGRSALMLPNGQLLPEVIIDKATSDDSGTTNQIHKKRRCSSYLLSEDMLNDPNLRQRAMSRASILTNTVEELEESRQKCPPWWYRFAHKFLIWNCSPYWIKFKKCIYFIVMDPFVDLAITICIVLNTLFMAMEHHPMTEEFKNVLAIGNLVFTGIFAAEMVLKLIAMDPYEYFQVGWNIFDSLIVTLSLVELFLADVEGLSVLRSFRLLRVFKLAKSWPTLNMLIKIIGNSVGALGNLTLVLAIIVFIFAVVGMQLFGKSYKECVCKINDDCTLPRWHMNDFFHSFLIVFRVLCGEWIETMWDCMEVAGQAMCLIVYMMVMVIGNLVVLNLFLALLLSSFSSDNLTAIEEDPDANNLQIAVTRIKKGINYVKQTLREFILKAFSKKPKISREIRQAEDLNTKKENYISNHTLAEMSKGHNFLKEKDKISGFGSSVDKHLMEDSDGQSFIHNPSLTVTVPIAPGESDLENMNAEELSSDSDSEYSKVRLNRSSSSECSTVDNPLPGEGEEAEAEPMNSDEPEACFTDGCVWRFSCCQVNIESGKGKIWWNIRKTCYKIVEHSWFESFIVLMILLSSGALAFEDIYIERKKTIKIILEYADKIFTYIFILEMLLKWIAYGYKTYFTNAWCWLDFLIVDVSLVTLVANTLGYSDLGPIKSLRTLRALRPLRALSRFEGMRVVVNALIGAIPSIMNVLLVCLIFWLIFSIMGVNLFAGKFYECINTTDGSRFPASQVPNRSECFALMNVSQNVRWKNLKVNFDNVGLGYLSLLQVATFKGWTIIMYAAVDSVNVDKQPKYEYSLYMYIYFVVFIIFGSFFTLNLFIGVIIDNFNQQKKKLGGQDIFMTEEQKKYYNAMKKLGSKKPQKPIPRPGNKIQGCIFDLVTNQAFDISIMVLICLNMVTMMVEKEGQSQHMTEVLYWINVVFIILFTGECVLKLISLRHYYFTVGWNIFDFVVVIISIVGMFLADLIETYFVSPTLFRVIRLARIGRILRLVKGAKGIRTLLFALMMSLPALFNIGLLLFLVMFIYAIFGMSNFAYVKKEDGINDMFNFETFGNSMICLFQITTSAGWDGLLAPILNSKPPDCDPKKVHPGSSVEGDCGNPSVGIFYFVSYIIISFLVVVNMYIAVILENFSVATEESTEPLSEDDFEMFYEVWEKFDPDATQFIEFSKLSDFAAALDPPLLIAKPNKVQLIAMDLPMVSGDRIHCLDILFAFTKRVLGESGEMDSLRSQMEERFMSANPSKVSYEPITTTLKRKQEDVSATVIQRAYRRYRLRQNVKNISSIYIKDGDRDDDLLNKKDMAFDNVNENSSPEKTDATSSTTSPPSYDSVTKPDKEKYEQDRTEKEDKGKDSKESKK
(§2) HEK 293 cells stably transfected with either Nav 1.7 or with Nav 1.5 were recorded in population patch-clamp mode with the IonWorks® Quattro automated electrophysiology system in accordance with the manufacturer's specifications (Molecular Devices, LLC, Sunnyvale, Calif.). Sodium channel currents were measured in response to a train of depolarizations that induced successively greater inactivation.
(§3) Cells were held at −110 mV for three seconds (Nav 1.7) or half a second (Nav 1.5) from a holding voltage of −15 mV, then put through a series of 26 pulses of 150 msec duration to −20 mV at a frequency of 5 Hz. Cells were then left unclamped for a period of 3 to 8 minutes while a single concentration of test compound was added. Cells were then reclamped and put through the same voltage protocol. Current at the end of the 26th pulse to −20 mV was subtracted from the peak current evoked by the 26th pulse to −20 mV to correct for leak current. Percent block was calculated for each concentration in duplicate, and IC50 curves were fitted to percent block as a function of concentration.
In general terms: In patch-clamp work, channel activity is measured electrically.

Data set [2] concerns the target T1, Nav 1.7. Description: Nav 1.7 in vitro PX assay, PatchXpress whole cell voltage clamp. Conditions: HEK 293 cells stably transfected with human Nav1.7; for pIC50: partially inactivated state (20 to 50% inactivation). The procedure, abridged:
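HEK293 cells stably expressing human Nav1.7, whole-cell voltage clamp at a holding potential giving 20–50% inactivation; currents elicited by 20 msec pulses to −10 mV at 0.1 Hz.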

The target of the next data set is Nav 1.5 (Homo sapiens (Human), UniProt Q14524). Briefly: Nav 1.5 in vitro assay, IonWorks Quattro (IWQ) population patch-clamp. Conditions: HEK 293 cells stably transfected with Nav 1.5; 26th pulse to -20 mV. As for the experimental part:
as §1, §2, §3

Sequence of Nav 1.5 (Q14524 whole entry): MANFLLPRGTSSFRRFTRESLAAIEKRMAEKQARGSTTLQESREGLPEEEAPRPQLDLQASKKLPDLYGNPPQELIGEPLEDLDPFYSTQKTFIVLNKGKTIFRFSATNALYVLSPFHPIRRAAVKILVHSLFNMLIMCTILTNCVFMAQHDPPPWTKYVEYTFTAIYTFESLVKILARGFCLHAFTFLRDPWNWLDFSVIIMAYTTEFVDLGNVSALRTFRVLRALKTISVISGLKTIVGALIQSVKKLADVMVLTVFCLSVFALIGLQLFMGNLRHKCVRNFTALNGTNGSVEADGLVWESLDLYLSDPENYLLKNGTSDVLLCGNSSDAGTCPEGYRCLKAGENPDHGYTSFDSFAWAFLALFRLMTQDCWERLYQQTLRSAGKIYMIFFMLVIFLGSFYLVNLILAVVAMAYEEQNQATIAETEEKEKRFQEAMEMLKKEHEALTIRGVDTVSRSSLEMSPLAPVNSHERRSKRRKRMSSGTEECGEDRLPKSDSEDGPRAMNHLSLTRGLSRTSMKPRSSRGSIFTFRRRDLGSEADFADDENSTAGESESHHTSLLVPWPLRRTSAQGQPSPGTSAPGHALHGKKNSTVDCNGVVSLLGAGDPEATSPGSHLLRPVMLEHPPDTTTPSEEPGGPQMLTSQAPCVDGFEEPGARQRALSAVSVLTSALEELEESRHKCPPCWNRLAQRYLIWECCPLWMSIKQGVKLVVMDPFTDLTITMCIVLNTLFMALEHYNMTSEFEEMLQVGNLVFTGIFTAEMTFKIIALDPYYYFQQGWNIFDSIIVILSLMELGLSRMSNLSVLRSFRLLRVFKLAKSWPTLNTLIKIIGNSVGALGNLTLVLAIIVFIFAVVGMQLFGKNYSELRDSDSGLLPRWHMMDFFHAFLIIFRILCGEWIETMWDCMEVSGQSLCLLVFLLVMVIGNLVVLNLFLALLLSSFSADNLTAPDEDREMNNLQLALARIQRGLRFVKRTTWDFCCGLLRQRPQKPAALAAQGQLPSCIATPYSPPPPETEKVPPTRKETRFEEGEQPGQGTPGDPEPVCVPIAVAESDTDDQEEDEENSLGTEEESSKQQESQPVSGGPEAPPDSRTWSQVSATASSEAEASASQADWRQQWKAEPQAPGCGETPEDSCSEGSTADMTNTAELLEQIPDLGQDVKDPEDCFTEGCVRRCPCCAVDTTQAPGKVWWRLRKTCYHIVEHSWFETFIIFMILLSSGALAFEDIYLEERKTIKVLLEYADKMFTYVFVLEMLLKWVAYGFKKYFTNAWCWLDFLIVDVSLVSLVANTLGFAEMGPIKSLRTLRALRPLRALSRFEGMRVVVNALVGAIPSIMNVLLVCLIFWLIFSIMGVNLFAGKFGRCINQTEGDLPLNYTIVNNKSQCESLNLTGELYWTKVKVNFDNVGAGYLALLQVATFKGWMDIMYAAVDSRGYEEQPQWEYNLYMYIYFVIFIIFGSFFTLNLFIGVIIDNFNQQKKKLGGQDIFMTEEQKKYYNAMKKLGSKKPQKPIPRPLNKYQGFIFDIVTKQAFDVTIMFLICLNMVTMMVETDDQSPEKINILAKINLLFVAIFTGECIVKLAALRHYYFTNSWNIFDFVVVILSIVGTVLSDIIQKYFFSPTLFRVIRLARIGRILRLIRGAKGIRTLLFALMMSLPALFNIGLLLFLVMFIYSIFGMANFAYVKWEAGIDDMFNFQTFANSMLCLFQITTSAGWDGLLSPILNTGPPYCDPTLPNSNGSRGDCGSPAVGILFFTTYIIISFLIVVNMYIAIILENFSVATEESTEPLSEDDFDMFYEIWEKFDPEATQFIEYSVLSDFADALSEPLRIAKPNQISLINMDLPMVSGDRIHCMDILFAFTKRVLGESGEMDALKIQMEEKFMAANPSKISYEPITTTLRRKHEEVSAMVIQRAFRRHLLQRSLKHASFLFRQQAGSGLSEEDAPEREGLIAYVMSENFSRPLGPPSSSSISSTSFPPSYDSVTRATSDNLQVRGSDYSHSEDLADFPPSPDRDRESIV

Broadly, the pIC50 is −log10 of the IC50, conventionally taken in molar units. Low values mean a large IC50, high ones a small IC50. With `COc1cc(C#N)ccc1N1C[C@H](C)Oc2cc(S(=O)(=O)Nc3nccs3)ccc21` (single isomer, unassigned) [Example 107], the pIC50 was 7.55 on Nav 1.7 [1], 6.51 against Nav 1.7 [2] and under 5.00 on Nav 1.5.
The matching figures for `COc1cc(C#N)ccc1N1C[C@@H](C)Oc2cc(S(=O)(=O)Nc3nccs3)ccc21` (single isomer, unassigned) [Example 108]: 7.34, 6.52 and under 5.00.
The corresponding values for `O=S(=O)(Nc1nccs1)c1ccc2c(c1)OCCN2c1ccc(C(F)(F)F)cc1C[C@H](O)CO` (single isomer, unassigned) [Example 208] are 7.73, 6.59 and 6.05.
Turning to `O=S(=O)(Nc1nccs1)c1ccc2c(c1)OCCN2c1ccc(C(F)(F)F)cc1C[C@@H](O)CO` (single isomer, unassigned) [Example 209], the negative-log IC50 (pIC50) on Nav 1.7 [1] is 7.90; against Nav 1.7 [2], 6.78; on Nav 1.5 it was 6.30.
The matching figures for `O=S(=O)(Nc1ncns1)c1ccc2c(c1)OCCN2c1ccc(C(F)(F)F)cc1Br` [Example 1, 4-(2-Bromo-4-(Trifluoromethyl)Phenyl)-N-(1,2,4-Thiadiazol-5-Yl)-3,4-Dihydro-2H-Benzo[B][1,4]Oxazine-7-Sulfonamide]: 7.95, 7.23 and under 5.00.
As for `O=S(=O)(Nc1ncns1)c1ccc2c(c1)OCCN2c1ccc(C(F)(F)F)cc1Cl` [Example 2, 4-(2-Chloro-4-(Trifluoromethyl)Phenyl)-N-(1,2,4-Thiadiazol-5-Yl)-3,4-Dihydro-2H-Benzo[B][1,4]Oxazine-7-Sulfonamide], the values for the negative-log IC50 (pIC50) against Nav 1.7 [1], on Nav 1.7 [2] and at Nav 1.5 were 8.11, 7.41 and under 5.00, respectively.
In the case of `Cn1nccc1-c1cc(C(F)(F)F)ccc1N1CCOc2cc(S(=O)(=O)Nc3ncns3)ccc21` [Example 3, 4-(2-(1-Methyl-1H-Pyrazol-5-Yl)-4-(Trifluoromethyl)Phenyl)-N-(1,2,4-Thiadiazol-5-Yl)-3,4-Dihydro-2H-Benzo[B][1,4]Oxazine-7-Sulfonamide], the figures for the pIC50 at Nav 1.7 [1], against Nav 1.7 [2] and on Nav 1.5 were 7.97, 7.24 and 5.73, respectively.
Regarding `O=S(=O)(Nc1ncns1)c1ccc2c(c1)OCCN2c1ccc(C(F)(F)F)cc1-c1cn[nH]c1` [Example 4, 4-(2-(1H-Pyrazol-4-Yl)-4-(Trifluoromethyl)Phenyl)-N-(1,2,4-Thiadiazol-5-Yl)-3,4-Dihydro-2H-Benzo[B][1,4]Oxazine-7-Sulfonamide], the pIC50 at Nav 1.7 [1] is 8.03; against Nav 1.7 [2], 7.24; against Nav 1.5, 6.03.
As for `O=S(=O)(Nc1nccs1)c1ccc2c(c1)OCCN2c1ccc(C(F)(F)F)cc1Cl` [Example 5, 4-(2-Chloro-4-(Trifluoromethyl)Phenyl)-N-(Thiazol-2-Yl)-3,4-Dihydro-2H-Benzo[B][1,4]Oxazine-7-Sulfonamide], the negative logarithm of the IC50 (pIC50) was 6.61 on Nav 1.7 [1], 6.49 against Nav 1.7 [2] and 5.39 at Nav 1.5.
As to `O=S(=O)(Nc1ncns1)c1ccc2c(c1)OCCN2c1ccc(C(F)(F)F)cc1C1=CCNCC1` [Example 7, 4-(2-(1,2,3,6-Tetrahydropyridin-4-Yl)-4-(Trifluoromethyl)Phenyl)-N-(1,2,4-Thiadiazol-5-Yl)-3,4-Dihydro-2H-Benzo[B][1,4]Oxazine-7-Sulfonamide], the pIC50 against Nav 1.7 [1] is 8.36; against Nav 1.7 [2] it was 7.63; against Nav 1.5 it was 6.46.
The matching figures for `NCc1nsc(NS(=O)(=O)c2ccc3c(c2)OCCN3c2ccc(C(F)(F)F)cc2Cl)n1` [Example 8, N-(3-(Aminomethyl)-1,2,4-Thiadiazol-5-Yl)-4-(2-Chloro-4-(Trifluoromethyl)Phenyl)-3,4-Dihydro-2H-Benzo[B][1,4]Oxazine-7-Sulfonamide 2,2,2-Trifluoroacetate]: 5.12, 4.80 and under 5.00.
The matching figures for `O=S(=O)(Nc1cc(Cl)ncn1)c1ccc2c(c1)OCCN2c1ccc(C(F)(F)F)cc1Cl` [Example 9, 4-(2-Chloro-4-(Trifluoromethyl)Phenyl)-N-(6-Chloropyrimidin-4-Yl)-3,4-Dihydro-2H-Benzo[B][1,4]Oxazine-7-Sulfonamide]: 6.06, 5.20 and under 5.00.
The matching figures for `Cc1nsc(NS(=O)(=O)c2ccc3c(c2)OCCN3c2ccc(C(F)(F)F)cc2Cl)n1` [Example 10, 4-(2-Chloro-4-(Trifluoromethyl)Phenyl)-N-(3-Methyl-1,2,4-Thiadiazol-5-Yl)-3,4-Dihydro-2H-Benzo[B][1,4]Oxazine-7-Sulfonamide]: 5.34, 5.17 and under 5.00.
In the case of `O=S(=O)(Nc1cscn1)c1ccc2c(c1)OCCN2c1ccc(C(F)(F)F)cc1Cl` [Example 11, 4-(2-Chloro-4-(Trifluoromethyl)Phenyl)-N-(Thiazol-4-Yl)-3,4-Dihydro-2H-Benzo[B][1,4]Oxazine-7-Sulfonamide], the results for the negative-log IC50 (pIC50) on Nav 1.7 [1], at Nav 1.7 [2] and against Nav 1.5 were 5.49, 4.90 and under 5.00, respectively.
Take `O=S(=O)(Nc1ccon1)c1ccc2c(c1)OCCN2c1ccc(C(F)(F)F)cc1Cl` [Example 13, 4-(2-Chloro-4-(Trifluoromethyl)Phenyl)-N-(Isoxazol-3-Yl)-3,4-Dihydro-2H-Benzo[B][1,4]Oxazine-7-Sulfonamide]: the negative-log IC50 (pIC50) against Nav 1.7 [1] was 5.76; on Nav 1.7 [2] it was 5.29; against Nav 1.5, under 5.00.
The matching figures for `O=S(=O)(Nc1ncccn1)c1ccc2c(c1)OCCN2c1ccc(C(F)(F)F)cc1Cl` [Example 16, 4-(2-Chloro-4-(Trifluoromethyl)Phenyl)-N-(Pyrimidin-2-Yl)-3,4-Dihydro-2H-Benzo[B][1,4]Oxazine-7-Sulfonamide]: 5.73, 4.92 and under 5.00.
For orientation: inhibition means the percentage by which the read-out fell short of the control. Consider `O=S(=O)(Nc1ccc(F)cn1)c1ccc2c(c1)OCCN2c1ccc(C(F)(F)F)cc1Cl` [Example 17, 4-(2-Chloro-4-(Trifluoromethyl)Phenyl)-N-(5-Fluoropyridin-2-Yl)-3,4-Dihydro-2H-Benzo[B][1,4]Oxazine-7-Sulfonamide], for which the values for the pIC50 against Nav 1.7 [1] and against Nav 1.5 were 5.44 and under 5.00, respectively. At Nav 1.7 [2] (HEK293, values marked *, 4.9 μM, read-out: Nav 1.7 PX percent inhibition at 4.9 μM), the inhibition at 4.9 µM amounted to 24.1%.
For `O=S(=O)(Nc1ncns1)c1ccc2c(c1)NCCN2c1ccc(C(F)(F)F)cc1Cl` [Example 18, 1-(2-Chloro-4-(Trifluoromethyl)Phenyl)-N-(1,2,4-Thiadiazol-5-Yl)-1,2,3,4-Tetrahydroquinoxaline-6-Sulfonamide], the negative-log IC50 (pIC50) was 5.98 against Nav 1.7 [1], 6.02 against Nav 1.7 [2] and under 5.00 against Nav 1.5.
Consider `CN1CCN(c2ccc(C(F)(F)F)cc2Cl)c2ccc(S(=O)(=O)Nc3ncns3)cc21` [Example 19, 1-(2-Chloro-4-(Trifluoromethyl)Phenyl)-4-Methyl-N-(1,2,4-Thiadiazol-5-Yl)-1,2,3,4-Tetrahydroquinoxaline-6-Sulfonamide], for which the pIC50 against Nav 1.7 [1] was 5.93; on Nav 1.7 [2] it was 5.31; at Nav 1.5, under 5.00.
The matching figures for `O=S(=O)(Nc1ncns1)c1ccc2c(c1)OCCN2c1ccc(C(F)(F)F)cc1-c1cccnc1` [Example 21, 4-(2-(Pyridin-3-Yl)-4-(Trifluoromethyl)Phenyl)-N-(1,2,4-Thiadiazol-5-Yl)-3,4-Dihydro-2H-Benzo[B][1,4]Oxazine-7-Sulfonamide]: 7.80, 6.79 and 5.88.
The matching figures for `CN1CC=C(c2cc(C(F)(F)F)ccc2N2CCOc3cc(S(=O)(=O)Nc4ncns4)ccc32)CC1` [Example 22, 4-(2-(1-Methyl-1,2,3,6-Tetrahydropyridin-4-Yl)-4-(Trifluoromethyl)Phenyl)-N-(1,2,4-Thiadiazol-5-Yl)-3,4-Dihydro-2H-Benzo[B][1,4]Oxazine-7-Sulfonamide 2,2,2-Trifluoroacetate]: 7.98, 6.87 and under 5.00.
The corresponding values for `O=S(=O)(Nc1ncns1)c1ccc2c(c1)OCCN2c1ccc(C(F)(F)F)cc1-c1cncnc1` [Example 23, 4-(2-(Pyrimidin-5-Yl)-4-(Trifluoromethyl)Phenyl)-N-(1,2,4-Thiadiazol-5-Yl)-3,4-Dihydro-2H-Benzo[B][1,4]Oxazine-7-Sulfonamide] are 7.53, 6.18 and 5.27.
On to `O=S(=O)(Nc1ncco1)c1ccc2c(c1)OCCN2c1ccc(C(F)(F)F)cc1Cl` [Example 24, 4-(2-Chloro-4-(Trifluoromethyl)Phenyl)-N-(Oxazol-2-Yl)-3,4-Dihydro-2H-Benzo[B][1,4]Oxazine-7-Sulfonamide], for which the pIC50 was 6.08 against Nav 1.7 [1], 5.37 against Nav 1.7 [2] and under 5.00 against Nav 1.5.
